The numbers were not newly measured in US20260069653A1, “COMPLEMENT INHIBITOR DOSING REGIMENS” (Apellis Pharmaceuticals, Inc., priority 2021, published 2026), which cites them from elsewhere.

Square brackets hold non-standard residues; d marks the D form. Trp(5-F) = N[C@@H](Cc1c[nH]c2ccc(F)cc12)C(=O)O; Trp(5-Me) = Cc1ccc2[nH]cc(C[C@H](N)C(=O)O)c2c1; Trp(6-F) = N[C@@H](Cc1c[nH]c2cc(F)ccc12)C(=O)O; Bpa = N[C@@H](Cc1ccc(C(=O)c2ccccc2)cc1)C(=O)O; 1Nal = N[C@@H](Cc1cccc2ccccc12)C(=O)O; 2Nal = N[C@@H](Cc1ccc2ccccc2c1)C(=O)O; Igl = N[C@H](C(=O)O)C1Cc2ccccc2C1

The subject of the data set is complement activation. The settings on record: fold more active than compstatin amidated at the C-terminus; published data and assays; cited from earlier work.
As to “Ac-ICV(1-Nal)QDWGAHRCT-COOH (Ac-ICV[1Nal]QDWGAHRCT-OH; not fully specified (bridges); printed as Ac-ICV(1-Nal)QDWGAHRCT-COOH; cysteine pairing not given here) [Ac V4(1-Nal)/H9A-OH]”, the Activity over compstatin is 30x. As to “Ac-ICV(2-Igl)QDWGAHRCT-CONH2 (Ac-ICV[Igl]QDWGAHRCT-NH2; not fully specified (bridges); printed as Ac-ICV(2-Igl)QDWGAHRCT-CONH2; cysteine pairing not given here) [Ac-V42Igl/H9A]”, the Activity over compstatin is listed as 39x. Consider “Ac-ICV(2-Igl)QDWGAHRCT-COOH (Ac-ICV[Igl]QDWGAHRCT-OH; not fully specified (bridges); printed as Ac-ICV(2-Igl)QDWGAHRCT-COOH; cysteine pairing not given here) [Ac-V42Igl/H9A-OH]”, for which the Activity over compstatin was 37x.

Turning to “Ac-ICV(2-Nal)QDWGAHRCT-CONH2 (Ac-ICV[2Nal]QDWGAHRCT-NH2; not fully specified (bridges); printed as Ac-ICV(2-Nal)QDWGAHRCT-CONH2; cysteine pairing not given here) [Ac-V4(2-Nal)/H9A]”, the Activity over compstatin is given as 99x.

“Ac-ICV(5-methyl-W)QDWGAHRCT-CONH2 (Ac-ICV[Trp(5-Me)]QDWGAHRCT-NH2; not fully specified (bridges); printed as Ac-ICV(5-methyl-W)QDWGAHRCT-CONH2; cysteine pairing not given here) [Ac-V4(5-MeW)/H9A]”: the Activity over compstatin is 67x. For “Ac-ICV(5fW)QDWGAHRCT-CONH2 (Ac-ICV[Trp(5-F)]QDWGAHRCT-NH2; not fully specified (bridges); printed as Ac-ICV(5fW)QDWGAHRCT-CONH2; cysteine pairing not given here) [Ac-V4(5fW)/H9A]”, the Activity over compstatin is 31x. As for “Ac-ICV(Bpa)QDWGAHRCT-CONH2 (Ac-ICV[Bpa]QDWGAHRCT-NH2; not fully specified (bridges); printed as Ac-ICV(Bpa)QDWGAHRCT-CONH2; cysteine pairing not given here) [Ac-V4(Bpa)/H9A]”, the Activity over compstatin was 86x. As to “Ac-ICV(Bpa)QDWGAHRCT-COOH (Ac-ICV[Bpa]QDWGAHRCT-OH; not fully specified (bridges); printed as Ac-ICV(Bpa)QDWGAHRCT-COOH; cysteine pairing not given here) [Ac-V4(Bpa)/H9A-OH]”, the Activity over compstatin was 49x. For Ac-ICVVQDWGHHRCT-CONH2 [Ac-compstatin], the Activity over compstatin is on record as 3x. In the case of “Ac-ICVWQD(5fW)GAHRCT-CONH2 (Ac-ICVWQD[Trp(5-F)]GAHRCT-NH2; not fully specified (bridges); printed as Ac-ICVWQD(5fW)GAHRCT-CONH2; cysteine pairing not given here) [Ac-V4W/W7(5fW)/H9A]”, the Activity over compstatin is listed as 121x.

As to “Ac-ICVWQDWGAHRCT-CONH2 (Ac-ICVWQDWGAHRCT-NH2; not fully specified (bridges); printed as Ac-ICVWQDWGAHRCT-CONH2; cysteine pairing not given here) [Ac-V4W/H9A]”, the Activity over compstatin is on record as 45x. For “Ac-ICVWQDWGAHRCdT-COOH [Ac-V4W/H9A/T13dT-OH]”, the Activity over compstatin was 55x. For the substance Ac-ICVYQDWGAHRCT-CONH2 [Ac-V4Y/H9A], the Activity over compstatin is reported as 14x.

Consider “Ac-ICV[(2-Nal)QDWGAHRCT-COOH (Ac-ICV[2Nal]QDWGAHRCT-OH; not fully specified (bridges); printed as Ac-ICV[(2-Nal)QDWGAHRCT-COOH; cysteine pairing not given here) [Ac V4(2-Nal)/H9A-OH]”, for which the Activity over compstatin is 38x. Consider “H-GICV(5fW)QD(5fW)GAHRCTN-COOH (H-GICV[Trp(5-F)]QD[Trp(5-F)]GAHRCTN-OH; not fully specified (bridges); cysteine pairing not given here) [G/V4(5f-WV)/WV7(5fW)/H9A+N-OH]”, for which the Activity over compstatin was 112x. Take “H-GICV(6fW)QD(6fW)GAHRCTN-COOH (H-GICV[Trp(6-F)]QD[Trp(6-F)]GAHRCTN-OH; not fully specified (bridges); cysteine pairing not given here) [+G/V4(6fW)/W7(6fW)H9A+N-OH]”: the Activity over compstatin is 126x.
